From US9738634B2, “Heterocyclic amide compound and herbicide” (SYNGENTA PARTICIPATIONS AG, priority 2013, dated 2017)

Experiments:
Assay type in all cases: in vivo
barnyard grass [1] = test: Test Example 1: weedkilling efficacy, preemergent weed treatment in the submerged state; A: barnyard grass; details: treatment dosage 320 g/ha
Outline: (§1)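 Alluvial soil in Wagner pots flooded to 4 cm; barnyard grass, bulrush and oval-leafed pondweed seeds sown, then 2.5-leaf rice seedlings transplanted. Same day, emulsified compound diluted in water to set g/ha dosages and applied to water surface; greenhouse 25–30 °C, effect scored by criteria after 3 weeks.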

bulrush [2] = test: Test Example 1: weedkilling efficacy, preemergent weed treatment in the submerged state; B: bulrush; details: treatment dosage 320 g/ha
Outline: as §1

oval-leafed pondweed [3] = test: Test Example 1: weedkilling efficacy, preemergent weed treatment in the submerged state; C: oval-leafed pondweed; details: treatment dosage 320 g/ha
Outline: as §1

transplanted rice = test: Test Example 1: preemergent weed treatment in the submerged state, effect on crop; a: transplanted rice; details: treatment dosage 320 g/ha
Outline: as §1

barnyard grass [4] = test: Test Example 2: weedkilling efficacy, growth period weed treatment in the submerged state; A: barnyard grass; details: treatment dosage 320 g/ha
Outline: (§2)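 First, alluvial soil in pots is flooded to 4 cm and mixed seed is sown. Next, plants grow in a greenhouse at 25 to 30° C until the 1-2 leaf stage. Then diluted emulsion is applied onto the water surface at the given g/ha rate, and injury is assessed after 3 weeks.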

bulrush [5] = test: Test Example 2: weedkilling efficacy, growth period weed treatment in the submerged state; B: bulrush; details: treatment dosage 320 g/ha
Outline: as §2

oval-leafed pondweed [6] = test: Test Example 2: weedkilling efficacy, growth period weed treatment in the submerged state; C: oval-leafed pondweed; details: treatment dosage 320 g/ha
Outline: as §2

crabgrass = test: Test Example 3: weedkilling efficacy through soil treatment; D: crabgrass; details: soil treatment, treatment dosage 320 g/ha
Outline: (§3)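 Crop and weed responses were judged three weeks after a uniform surface spray of the water-diluted emulsion at the given g/ha rate. Seeds sat beneath about 1.5 cm of sterilized diluvial soil, and boxes stood in a greenhouse at 25 to 30° C.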

green foxtail = test: Test Example 3: weedkilling efficacy through soil treatment; E: green foxtail; details: soil treatment, treatment dosage 320 g/ha
Outline: as §3

barnyard grass [7] = test: Test Example 3: weedkilling efficacy through soil treatment; F: barnyard grass; details: soil treatment, treatment dosage 320 g/ha
Source text: Weedkilling Efficacy Test Through Soil Treatment
Sterilized diluvial soil was introduced into 21 cm long, 13 cm wide, 7 cm deep plastic boxes, and seeds of crabgrass, green foxtail, barnyard grass, wild oat, black-grass, Italian ryegrass, common wind-grass, Indian mallow, redroot pigweed, fig-leafed goosefoot, chickweed, catchweed, birds-eye speedwell, corn, soybean, rice, wheat, beet and rapeseed were each spot-sown, and covered with about 1.5 cm of soil. Next, emulsions of compounds of the present invention prepared according to compounding example 2 were diluted with water to give the specified dosages, and applied uniformly onto the soil surface with a small sprayer. The plants were grown by placing the plastic boxes in a greenhouse at 25 to 30° C., and 3 weeks after the pesticide treatment the effect on each type of plant was investigated on the basis of the assessment criteria of test example 1.
A: barnyard grass, B: bulrush, C: oval-leafed pondweed, D: crabgrass, E: green foxtail, F: barnyard grass, G: wild oat, H: black-grass, I: Italian ryegrass, J: common wind-grass, K: Indian mallow, L: redroot pigweed, M: fig-leafed goosefoot, N: chickweed, O: catchweed, p: birds-eye speedwell, a: transplanted rice, b: directly sown rice, c: corn, d: soybean, e: wheat, f: beet, g: rapeseed
Further, pesticide dosage (g/ha) indicates the concentration regulated such that treatment was with only the stated number of grams (g), when calculated per hectare (ha).

wild oat = test: Test Example 3: weedkilling efficacy through soil treatment; G: wild oat; details: soil treatment, treatment dosage 320 g/ha
Outline: as §3

black-grass = test: Test Example 3: weedkilling efficacy through soil treatment; H: black-grass; details: soil treatment, treatment dosage 320 g/ha
Outline: as §3

Italian ryegrass = test: Test Example 3: weedkilling efficacy through soil treatment; I: Italian ryegrass; details: soil treatment, treatment dosage 320 g/ha
Outline: as §3

common wind-grass = test: Test Example 3: weedkilling efficacy through soil treatment; J: common wind-grass; details: soil treatment, treatment dosage 320 g/ha
Outline: as §3

Indian mallow = test: Test Example 3: weedkilling efficacy through soil treatment; K: Indian mallow; details: soil treatment, treatment dosage 320 g/ha
Outline: as §3

redroot pigweed = test: Test Example 3: weedkilling efficacy through soil treatment; L: redroot pigweed; details: soil treatment, treatment dosage 320 g/ha
Outline: as §3

fig-leafed goosefoot = test: Test Example 3: weedkilling efficacy through soil treatment; M: fig-leafed goosefoot; details: soil treatment, treatment dosage 320 g/ha
Outline: as §3

chickweed = test: Test Example 3: weedkilling efficacy through soil treatment; N: chickweed; details: soil treatment, treatment dosage 320 g/ha
Outline: as §3

birds-eye speedwell = test: Test Example 3: weedkilling efficacy through soil treatment; p: birds-eye speedwell; details: soil treatment, treatment dosage 320 g/ha
Outline: as §3

directly sown rice = test: Test Example 3: soil treatment, effect on crop; b: directly sown rice; details: soil treatment, treatment dosage 320 g/ha
Outline: as §3

corn = test: Test Example 3: soil treatment, effect on crop; c: corn; details: soil treatment, treatment dosage 320 g/ha
Outline: as §3

soybean = test: Test Example 3: soil treatment, effect on crop; d: soybean; details: soil treatment, treatment dosage 320 g/ha
Outline: as §3

wheat = test: Test Example 3: soil treatment, effect on crop; e: wheat; details: soil treatment, treatment dosage 320 g/ha
Outline: as §3

beet = test: Test Example 3: soil treatment, effect on crop; f: beet; details: soil treatment, treatment dosage 320 g/ha
Outline: as §3

rapeseed = test: Test Example 3: soil treatment, effect on crop; g: rapeseed; details: soil treatment, treatment dosage 320 g/ha
Outline: as §3

Structure (SMILES)	A: barnyard grass, weed kill grade (barnyard grass [1])	B: bulrush, weed kill grade (bulrush [2])	C: oval-leafed pondweed, weed kill grade (oval-leafed pondweed [3])	a: transplanted rice, effect on crop grade (transplanted rice)	A (barnyard grass) weedkilling efficacy grade (barnyard grass [4])	B (bulrush) weedkilling efficacy grade (bulrush [5])	C (oval-leafed pondweed) weedkilling efficacy grade (oval-leafed pondweed [6])	D: crabgrass, weedkilling efficacy grade (crabgrass)	E: green foxtail, weedkilling efficacy grade (green foxtail)	F: barnyard grass, weedkilling efficacy grade (barnyard grass [7])	G: wild oat, weedkilling efficacy grade (wild oat)	H: black-grass, weedkilling efficacy grade (black-grass)	I: Italian ryegrass, weedkilling efficacy grade (Italian ryegrass)	J: common wind-grass, weedkilling efficacy grade (common wind-grass)	K: Indian mallow, weedkilling efficacy grade (Indian mallow)	L: redroot pigweed, weedkilling efficacy grade (redroot pigweed)	M: fig-leafed goosefoot, weedkilling efficacy grade (fig-leafed goosefoot)	N: chickweed, weedkilling efficacy grade (chickweed)	P: birds-eye speedwell, weedkilling efficacy grade (birds-eye speedwell)	b: directly sown rice, effect on crop grade (directly sown rice)	also measured
Cc1cc(Cl)cc(NC(=O)C(C)(C)N2COCN(c3ccccc3)C2=O)n1 [A-2-25]	5 (weed kill ratio 90% or more, (practically complete withering))	5 (weed kill ratio 90% or more, (practically complete withering))	5 (weed kill ratio 90% or more, (practically complete withering))	3 (weed kill ratio 40% or more, less than 70%)	5 (weed kill ratio 90% or more, (practically complete withering))	5 (weed kill ratio 90% or more, (practically complete withering))	5 (weed kill ratio 90% or more, (practically complete withering))	5 (weed kill ratio 90% or more, (practically complete withering))	5 (weed kill ratio 90% or more, (practically complete withering))	5 (weed kill ratio 90% or more, (practically complete withering))	4 (weed kill ratio 70% or more, less than 90%)	5 (weed kill ratio 90% or more, (practically complete withering))	5 (weed kill ratio 90% or more, (practically complete withering))	5 (weed kill ratio 90% or more, (practically complete withering))	5 (weed kill ratio 90% or more, (practically complete withering))	4 (weed kill ratio 70% or more, less than 90%)	4 (weed kill ratio 70% or more, less than 90%)	4 (weed kill ratio 70% or more, less than 90%)	5 (weed kill ratio 90% or more, (practically complete withering))	5 (weed kill ratio 90% or more, (practically complete withering))	c: corn, effect on crop grade (corn): 0 (weed kill ratio 5% or less (practically no effect)); d: soybean, effect on crop grade (soybean): 0 (weed kill ratio 5% or less (practically no effect)); e: wheat, effect on crop grade (wheat): 0 (weed kill ratio 5% or less (practically no effect)); f: beet, effect on crop grade (beet): 4 (weed kill ratio 70% or more, less than 90%); g: rapeseed, effect on crop grade (rapeseed): 3 (weed kill ratio 40% or more, less than 70%)
Cc1cc(Cl)nc(NC(=O)C(C)(C)N2COCN(c3ccccc3)C2=O)c1 [A-2-26]	5 (weed kill ratio 90% or more, (practically complete withering))	5 (weed kill ratio 90% or more, (practically complete withering))	5 (weed kill ratio 90% or more, (practically complete withering))	4 (weed kill ratio 70% or more, less than 90%)	5 (weed kill ratio 90% or more, (practically complete withering))	5 (weed kill ratio 90% or more, (practically complete withering))	5 (weed kill ratio 90% or more, (practically complete withering))	5 (weed kill ratio 90% or more, (practically complete withering))	5 (weed kill ratio 90% or more, (practically complete withering))	5 (weed kill ratio 90% or more, (practically complete withering))	5 (weed kill ratio 90% or more, (practically complete withering))	5 (weed kill ratio 90% or more, (practically complete withering))	5 (weed kill ratio 90% or more, (practically complete withering))	5 (weed kill ratio 90% or more, (practically complete withering))	0 (weed kill ratio 5% or less (practically no effect))	2 (weed kill ratio 20% or more, less than 40%)	4 (weed kill ratio 70% or more, less than 90%)	3 (weed kill ratio 40% or more, less than 70%)	5 (weed kill ratio 90% or more, (practically complete withering))	5 (weed kill ratio 90% or more, (practically complete withering))	c: corn, effect on crop grade (corn): 0 (weed kill ratio 5% or less (practically no effect)); d: soybean, effect on crop grade (soybean): 2 (weed kill ratio 20% or more, less than 40%); e: wheat, effect on crop grade (wheat): 3 (weed kill ratio 40% or more, less than 70%); f: beet, effect on crop grade (beet): 3 (weed kill ratio 40% or more, less than 70%); g: rapeseed, effect on crop grade (rapeseed): 4 (weed kill ratio 70% or more, less than 90%)
CC(C)(C(=O)Nc1cc(OC(F)F)cc(Cl)n1)N1COCN(c2ccccc2)C1=O [A-2-34]	5 (weed kill ratio 90% or more, (practically complete withering))	5 (weed kill ratio 90% or more, (practically complete withering))	5 (weed kill ratio 90% or more, (practically complete withering))	3 (weed kill ratio 40% or more, less than 70%)	5 (weed kill ratio 90% or more, (practically complete withering))	5 (weed kill ratio 90% or more, (practically complete withering))	5 (weed kill ratio 90% or more, (practically complete withering))	5 (weed kill ratio 90% or more, (practically complete withering))	5 (weed kill ratio 90% or more, (practically complete withering))	5 (weed kill ratio 90% or more, (practically complete withering))	5 (weed kill ratio 90% or more, (practically complete withering))	5 (weed kill ratio 90% or more, (practically complete withering))	5 (weed kill ratio 90% or more, (practically complete withering))	5 (weed kill ratio 90% or more, (practically complete withering))	0 (weed kill ratio 5% or less (practically no effect))	0 (weed kill ratio 5% or less (practically no effect))	4 (weed kill ratio 70% or more, less than 90%)	4 (weed kill ratio 70% or more, less than 90%)	4 (weed kill ratio 70% or more, less than 90%)	4 (weed kill ratio 70% or more, less than 90%)	c: corn, effect on crop grade (corn): 0 (weed kill ratio 5% or less (practically no effect)); d: soybean, effect on crop grade (soybean): 0 (weed kill ratio 5% or less (practically no effect)); e: wheat, effect on crop grade (wheat): 0 (weed kill ratio 5% or less (practically no effect)); f: beet, effect on crop grade (beet): 4 (weed kill ratio 70% or more, less than 90%); g: rapeseed, effect on crop grade (rapeseed): 1 (weed kill ratio 5% or more, less than 20%)
